Results reported in patent US20230181556A1, “USE OF PSYCHOTROPIC DRUGS FOR THE TREATMENT OF CORONAVIRUS INFECTIONS” (priority 2020, published 2023).

Tested on: SARS-CoV-2 clinical isolates D614G
Assay type: cell-based

Row | SMILES | IC50 [µM]
1 | CN1CCCC(n2nc(Cc3ccc(Cl)cc3)c3ccccc3c2=O)CC1 (centres unmarked) [Azelastine] | 5.75
2 | CC(CN1c2ccccc2Sc2ccccc21)N(C)C (centres unmarked) [Promethazine] | 9.22
